Experimental data from patent US9289509B2, “Uses of immunoconjugates targeting CD138” (Biotest AG, priority 2009, dated 2016).
Like-named read-outs stand apart in the source and are kept apart here.

Tested on: primary mammary tumor of a patient
Conditions: for T/C: day 21
Source text: In accordance with the CD138 expression analysis (Immunohistochemistry analysis on tumor tissue microarrays) tumor candidates were selected from a primary tumor collection, that is, from patient derived tumors.
NMRI (nude) mice were implanted (bilateral) with primary mammary tumor of a patient (determined via IHC analysis as CD138 strong positive). A breast carcinoma skin metastasis was taken stage M1. […] The tumor was estrogen receptor negative and progesterone receptior negative.
Tumor diameters were measured two times a week. Tumor volumes were calculated according to the formula a*b*b/2, with “a” being the longest axis and “b” the perpendicular axis thereto. Inhibition of tumor volume in the test groups relative to the vehicle control group was calculated as the ratio of the median relative tumor volumes (T/C).

Substance: BT062
- T/C (13.25 mg/kg/4 mg/kg): 0.0
- T/C (23.85 mg/kg): 0.0
- tolerability / body weight (after each injection): well tolerated, having no influence on body weight
- T/C value (both treatment groups): below 10%
- tumor regrowth (treatment free observation period, 39 days after last administration): no tumor regrowth was detected
- time to complete remission (weekly administration): 21 days
